Source: patent US20240208962A1, “MICROBIOCIDAL QUINOLINE/QUINOXALINE BENZOTHIAZINE DERIVATIVES” (SYNGENTA CROP PROTECTION AG, priority 2021, published 2024)

Legend:
[1] = test system: Mycosphaerella graminicola (Septoria tritici); assay: Comparative: Mycosphaerella graminicola (Septoria tritici) on wheat / preventative, emulsifiable concentrate; type: in vivo; conditions: rate of application 60 ppm, Mycosphaerella graminicola on wheat cv. Riband, 16 to 19 days after application
Venturia inaequalis = assay: Comparative: Venturia inaequalis / apple / preventative (Scab on apple); type: in vivo; conditions: rate of application 200 ppm, Venturia inaequalis on apple seedlings, emulsifiable concentrate, 11-13 days after application
[2] = test system: Mycosphaerella graminicola (Septoria tritici); assay: Mycosphaerella graminicola (Septoria tritici) on wheat / preventative; type: in vivo; conditions: Zymoseptoria tritici, wheat plants cv. Riband, preventative spray, 16 to 19 days after application, read-out: control of Mycosphaerella graminicola compared to untreated control
[3] = test system: Monographella nivalis (Microdochium nivale); assay: Monographella nivalis (Microdochium nivale) / liquid culture (foot rot cereals); type: cell-based; conditions: liquid culture PDB, 4 to 5 days after application, read-out: control of Monographella nivalis (inhibition of growth, photometric)
[4] = test system: Botryotinia fuckeliana (Botrytis cinerea); assay: Botryotinia fuckeliana (Botrytis cinerea) / liquid culture (Gray mould); type: cell-based; conditions: liquid culture Vogels broth, 3-4 days after application, read-out: control of Botryotinia fuckeliana (inhibition of growth, photometric)
Botrytis cinerea = assay: Comparative: Botrytis cinerea / tomato / preventative; type: in vivo; conditions: rate of application 200 ppm, Botrytis cinerea on tomato, emulsifiable concentrate, 5-6 days after application
[5] = test system: Glomerella lagenarium (Colletotrichum lagenarium); assay: Glomerella lagenarium (Colletotrichum lagenarium) / liquid culture (Anthracnose); type: cell-based; conditions: Colletotrichum orbiculare, liquid culture PDB, 3-4 days after application, read-out: control of Glomerella lagenarium (inhibition of growth, photometric)
Fusarium culmorum = assay: microbe, parasite or virus in culture; type: cell-based; conditions: read-out: control of Fusarium culmorum (inhibition of growth, photometric)
[6] = test system: Colletotrichum lagenarium; assay: Comparative: Colletotrichum lagenarium / cucumber / preventative (Anthracnose); type: in vivo; conditions: rate of application 200 ppm, Colletotrichum lagenarium on cucumber cv. Wisconsin, emulsifiable concentrate, 6-8 days after application

Compound	Efficacy (% control) [1]	Efficacy (% control) (Venturia inaequalis)	pest or weed control at 60 ppm [2]	inhibition at 20 ppm [3]	inhibition at 20 ppm [4]	Efficacy (% control) (Botrytis cinerea)	melting point	inhibition at 20 ppm [5]	inhibition at 20 ppm (Fusarium culmorum)	Efficacy (% control) [6]
Cc1ccc2c(c1F)SC(C)(C)N=C2c1cnc2c(F)cccc2c1 [Compound E.08, 8-fluoro-4-(8-fluoro-3-quinolyl)-2,2,7-trimethyl-1,3-benzothiazine]	89 % control	80 % control	≥ 80%	≥ 80%	≥ 80%	97 % control	159 to 161 °C	≥ 80%	≥ 80%	
CC1(C)N=C(c2cnc3c(F)cccc3c2)c2ccc(F)c(F)c2S1 [E.03, 7,8-difluoro-4-(8-fluoro-3-quinolyl)-2,2-dimethyl-1,3-benzothiazine]			≥ 80%	≥ 80%	≥ 80%			≥ 80%	≥ 80%	
Cc1cccc2c1SC(C)(C)N=C2c1cnc2c(F)c(F)ccc2c1 [Compound E.01, 4-(7,8-difluoro-3-quinolyl)-2,2,8-trimethyl-1,3-benzothiazine]	72 % control	97 % control	≥ 80%		≥ 80%	97 % control	137 to 139 °C	≥ 80%		97 % control
Cc1ccc2c(c1C#N)SC(C)(C)N=C2c1cnc2c(F)cccc2c1 [E.10, 4-(8-fluoro-3-quinolyl)-2,2,7-trimethyl-1,3-benzothiazine-8-carbonitrile]					≥ 80%				≥ 80%	
Cc1ccc2c(c1C)SC(C)(C)N=C2c1cnc2c(F)cccc2c1 [E.11, 4-(8-fluoro-3-quinolyl)-2,2,7,8-tetramethyl-1,3-benzothiazine]			≥ 80%	≥ 80%	≥ 80%			≥ 80%	≥ 80%	
CC1(C)N=C(c2cnc3c(F)c(F)ccc3c2)c2cccc(Cl)c2S1 [Compound E.02, 8-chloro-4-(7,8-difluoro-3-quinolyl)-2,2-dimethyl-1,3-benzothiazine]	99 % control	97 % control	≥ 80%		≥ 80%	95 % control	134 to 136 °C	≥ 80%		97 % control
Cc1cccc2c1SC(C)(C(F)F)N=C2c1cnc2c(F)cccc2c1 (stereo not shown) [E.15, 2-(difluoromethyl)-4-(8-fluoro-3-quinolyl)-2,8-dimethyl-1,3-benzothiazine]				≥ 80%	≥ 80%			≥ 80%	≥ 80%	
Cc1c(Cl)ccc2c1SC(C)(C)N=C2c1cnc2c(F)cccc2c1 [E.25, 7-chloro-4-(8-fluoro-3-quinolyl)-2,2,8-trimethyl-1,3-benzothiazine]			≥ 80%		≥ 80%		68 to 70 °C	≥ 80%	≥ 80%	
CC1(Cc2ccc(Cl)nc2)N=C(c2cnc3c(F)cccc3c2)c2cccc(Cl)c2S1 (stereo not shown) [E.19, 8-chloro-2-[(6-chloro-3-pyridyl)methyl]-4-(8-fluoro-3-quinolyl)-2-methyl-1,3-benzothiazine]				≥ 80%	≥ 80%			≥ 80%	≥ 80%	
CC1(C)N=C(c2cnc3c(F)cccc3c2)c2cccc(F)c2S1 [Comparative compound A, reference compound]	11 % control	100 % control				95 % control				80 % control
Cc1c(C#N)ccc2c1SC(C)(C)N=C2c1cnc2c(F)c(F)ccc2c1 [E.22, 4-(7,8-difluoro-3-quinolyl)-2,2,8-trimethyl-1,3-benzothiazine-7-carbonitrile]					≥ 80%		216 to 218 °C			
CC1(C)N=C(c2cnc3c(F)cccc3c2)c2cccc(Cl)c2S1 [Compound E.12, 8-chloro-4-(8-fluoro-3-quinolyl)-2,2-dimethyl-1,3-benzothiazine]	92 % control	100 % control	≥ 80%	≥ 80%	≥ 80%	95 % control	158 to 160 °C	≥ 80%	≥ 80%	100 % control
Cc1ccc2c(c1Cl)SC(C)(C)N=C2c1cnc2c(F)cccc2c1 [Compound E.13, 8-chloro-4-(8-fluoro-3-quinolyl)-2,2,7-trimethyl-1,3-benzothiazine]	96 % control		≥ 80%	≥ 80%	≥ 80%			≥ 80%	≥ 80%	
Cc1cccc2c1S[C@](C)(C(F)F)N=C2c1cnc2c(F)cccc2c1 [E.06, (2R)-2-(difluoromethyl)-4-(8-fluoro-3-quinolyl)-2,8-dimethyl-1,3-benzothiazine]				≥ 80%	≥ 80%			≥ 80%	≥ 80%	
COc1c(Cl)ccc2c1SC(C)(C)N=C2c1cnc2c(F)cccc2c1 [E.24, 7-chloro-4-(8-fluoro-3-quinolyl)-8-methoxy-2,2-dimethyl-1,3-benzothiazine]				≥ 80%	≥ 80%				≥ 80%	
CC1(C)N=C(c2cnc3c(F)cccc3c2)c2ccc(Cl)c(Cl)c2S1 [E.05, 7,8-dichloro-4-(8-fluoro-3-quinolyl)-2,2-dimethyl-1,3-benzothiazine]			≥ 80%	≥ 80%	≥ 80%			≥ 80%	≥ 80%	
CC1(Cc2ccc(Cl)nc2)N=C(c2cnc3c(F)c(F)ccc3c2)c2cccc(Cl)c2S1 (stereo not shown) [E.18, 8-chloro-2-[(6-chloro-3-pyridyl)methyl]-4-(7,8-difluoro-3-quinolyl)-2-methyl-1,3-benzothiazine]				≥ 80%	≥ 80%			≥ 80%		
CC1(C(F)F)N=C(c2cnc3c(F)cccc3c2)c2cccc(Cl)c2S1 (stereo not shown) [E.09, 8-chloro-2-(difluoromethyl)-4-(8-fluoro-3-quinolyl)-2-methyl-1,3-benzothiazine]				≥ 80%	≥ 80%			≥ 80%	≥ 80%	
Cc1nc2c(F)cccc2cc1C1=NC(C)(C)Sc2c(Cl)cccc21 [E.20, 8-chloro-4-(8-fluoro-2-methyl-3-quinolyl)-2,2-dimethyl-1,3-benzothiazine]				≥ 80%	≥ 80%		134 to 136 °C	≥ 80%		
Cc1c(C#N)ccc2c1SC(C)(C)N=C2c1cnc2c(F)cccc2c1 [E.23, 4-(8-fluoro-3-quinolyl)-2,2,8-trimethyl-1,3-benzothiazine-7-carbonitrile]				≥ 80%	≥ 80%		88 to 90 °C		≥ 80%	
Cc1ccc2c(c1F)SC(C)(C)N=C2c1cnc2c(F)c(F)ccc2c1 [E.16, 4-(7,8-difluoro-3-quinolyl)-8-fluoro-2,2,7-trimethyl-1,3-benzothiazine]			≥ 80%	≥ 80%	≥ 80%				≥ 80%	
CSc1cccc2c1SC(C)(C)N=C2c1cnc2c(F)cccc2c1 [E.04, 4-(8-fluoro-3-quinolyl)-2,2-dimethyl-8-methylsulfanyl-1,3-benzothiazine]				≥ 80%	≥ 80%			≥ 80%	≥ 80%	
Cc1c(Cl)ccc2c1SC(C)(C)N=C2c1cnc2c(F)c(F)ccc2c1 [E.21, 7-chloro-4-(7,8-difluoro-3-quinolyl)-2,2,8-trimethyl-1,3-benzothiazine]				≥ 80%	≥ 80%		161 to 163 °C		≥ 80%	
Cc1cccc2c1SC(C)(C)N=C2c1cnc2c(F)cccc2c1 [Compound E.14, 4-(8-fluoro-3-quinolyl)-2,2,8-trimethyl-1,3-benzothiazine]	83 % control	100 % control	≥ 80%	≥ 80%	≥ 80%	93 % control		≥ 80%	≥ 80%	97 % control
CC1(C)N=C(c2cnc3c(F)cccc3n2)c2cccc(Cl)c2S1 [E.17, 8-chloro-4-(5-fluoroquinoxalin-2-yl)-2,2-dimethyl-1,3-benzothiazine]				≥ 80%	≥ 80%			≥ 80%	≥ 80%	
